Test results reported in patent US8859529B2, “Compounds for the treatment of inflammatory disorders” (Merck Sharp & Dohme Corp., priority 2008, dated 2014).

Test system: TNF-α production from human whole blood
Test: Inhibition of TNF-α production from human whole blood (hWBA)
Assay type: cell-based
Conditions: human whole blood diluted 1:1, 1 h pre-incubation, LPS, 3.5 h, TNF-α by ELISA; N/A = Not Active
Description: The compounds' ability to inhibit TACE activity can also be determined in human whole blood using the assay conditions described n Example 15 below.
Human whole blood was diluted 1:1 with serum free medium (RPMI, L-glutamine, Pen-Strep, HEPES) and incubated with a test compound in a final volume of 360 μl for 1 h at 37° C. Forty microliters of LPS (10 μg/mL) was then added. Supernatant was collected after 3.5 h incubation and the concentration of TNF-α was determined by ELISA (R&D Systems). The concentration of the test compound which inhibits 50% of the amount of TNF-α from the untreated control was determined.

Structure (SMILES)	IC50 [nM]
COc1ccc2c(c1)C(=O)N(C[C@@]1(c3cc4ncccc4o3)NC(=O)N(COC(=O)C(C)(C)C)C1=O)C2 [Compound 1]	281
COc1ccc2c(c1)C(=O)N(C[C@@]1(c3cc4cnccc4o3)NC(=O)N(COC(=O)C(C)(C)C)C1=O)C2 [Compound 2]	273
CCN1CCN(c2ccc3oc([C@]4(CN5Cc6ccc(OC)c(F)c6C5=O)NC(=O)N(COC(=O)C(C)(C)C)C4=O)cc3n2)CC1 [Compound 3]	61
COc1ccc2c(c1F)C(=O)N(C[C@@]1(c3cc4nc(N5CCN(C)CC5)ccc4o3)NC(=O)N(COC(=O)C(C)(C)C)C1=O)C2 [Compound 4]	92
COc1ccc2c(c1F)C(=O)N(C[C@@]1(c3cc4nc(N5CCNC(=O)C5)ccc4o3)NC(=O)N(COC(=O)C(C)(C)C)C1=O)C2 [Compound 5]	104
COc1ccc2c(c1F)C(=O)N(C[C@@]1(c3cc4nc(N5CCC5=O)ccc4o3)NC(=O)N(COC(=O)C(C)(C)C)C1=O)C2 [Compound 6]	447
COc1ccc2c(c1F)C(=O)N(C[C@@]1(c3cc4cc5c(cc4o3)C(=O)NCC5)NC(=O)N(COC(=O)C(C)(C)C)C1=O)C2 [Compound 32]	135
COc1ccc2c(c1)C(=O)N(C[C@@]1(c3cc4cnccc4o3)NC(=O)N(COC(=O)C3(C)CCCCC3)C1=O)C2 [Compound 35.2]	35.2
COc1ccc2c(c1F)C(=O)N(C[C@@]1(c3cc4nc(C(N)=O)ccc4o3)NC(=O)N(COC(=O)C(C)(C)C)C1=O)C2 [Compound 35]	79
CCCN1CCN(c2ccc3oc([C@]4(CN5Cc6ccc(OC)c(F)c6C5=O)NC(=O)N(COC(=O)C(C)(C)C)C4=O)cc3n2)CC1 [Compound 40]	258
COc1ccc2c(c1)C(=O)N(C[C@@]1(C#Cc3ccc(-c4ncccc4OC(=O)C(C)(C)C)cc3)NC(=O)N(COC(=O)C(C)(C)C)C1=O)C2 [Compound 42]	794
CCOCCOC(=O)OCN1C(=O)N[C@@](CN2Cc3ccc(OC)cc3C2=O)(c2cc3cnccc3o2)C1=O [Compound 63.6]	208
COCCOCC(=O)OCN1C(=O)N[C@@](CN2Cc3ccc(OC)cc3C2=O)(c2cc3cnccc3o2)C1=O [Compound 67.2]	313
COc1ccc2c(c1)C(=O)N(C[C@@]1(c3cc4cnccc4o3)NC(=O)N(C(C)OC(=O)N(C)C)C1=O)C2 (stereo partly shown) [Compound 70]	774
COc1ccc2c(c1)C(=O)N(C[C@@]1(c3cc4cnccc4o3)NC(=O)N(C(C)OC(=O)N3CCN(C)CC3)C1=O)C2 (stereo partly shown) [Compound 71]	9920
CCOP(=O)(OCC)OCN1C(=O)N[C@@](CN2Cc3ccc(OC)c(F)c3C2=O)(c2cc3nc(N4CCN(CC)CC4)ccc3o2)C1=O [Compound 73]	255
COc1ccc2c(c1)C(=O)N(C[C@@]1(c3cc4cnccc4o3)NC(=O)N(COP(=O)(O)O)C1=O)C2 [Compound 74.1]	720
COc1ccc2c(c1)C(=O)N(C[C@@]1(c3cc4cnccc4o3)NC(=O)N(COP(=O)(OCc3ccccc3)OCc3ccccc3)C1=O)C2 [Compound 74]	3150
COc1ccc2c(c1)C(=O)N(C[C@]1(c3cc4ncccc4o3)C(=O)N(C(C)OC(C)=O)C(=O)N1C(C)=O)C2 (stereo partly shown) [Compound 78]	2120
COc1ccc2c(c1F)C(=O)N(C[C@]1(c3cc4nc(C(N)=O)ccc4o3)C(=O)N(COC(=O)C(C)(C)C)C(=O)N1COC(=O)C(C)(C)C)C2 [Compound 81]	159
CCOc1ccc2c(c1F)C(=O)N(C[C@]1(c3cc4nc(N5CCN(CC)CC5)ccc4o3)C(=O)N(COC(=O)C(C)(C)C)C(=O)N1COC(=O)C(C)(C)C)C2 [Compound 85]	381
CCOCCOC(=O)OCN1C(=O)N(C(=O)OCCOCC)[C@@](CN2Cc3ccc(OC)cc3C2=O)(c2cc3cnccc3o2)C1=O [Compound 89.1]	3150
COc1ccc2c(c1)C(=O)N(C[C@]1(c3cc4cnccc4o3)C(=O)N(COC(=O)OCCN(C)C(=O)OCc3ccccc3)C(=O)N1C(=O)OCCN(C)C(=O)OCc1ccccc1)C2 [Compound 89]	4890

Test system: not listed separately
Test: Area under the curve determinations of plasma levels in rats (rrAUC)
Assay type: in vivo
Conditions: rapid rat AUC of the drug (parent) in plasma; oral 10 mg/kg, fasted rats, blood 0.5-6 h post-dosing
Description: To gain insight into the pharmacokinetic properties of the compounds of formula (I), plasma levels of the compounds in rats were determined according to the protocol described in Korfmacher, W. A,; Cox, K. A.; Ng, K. J.; Veals, J.; Hsieh, Y.; Wainhaus, S.; Broske, L; Prelusky, D.; Nomeir, A.; White, R. E. Rapid Commun. Mass Spectrorn, 2001, 15, 335. Briefly, rats, after an overnight fast, were dosed orally with the test compound at a dose of 10 mg/kg in a 5 mL/kg dose volume. Blood was collected at 0.5, 1, 2, 3, 4, and 6 h post-dosing. Mass spectrometry using high performance liquid chromatography was used to identify and measure the concentrations of the test compounds in the plasma at the various time points. The parent ion of each test compound was used to identify and quantitate the compounds in plasma.

Structure (SMILES)	PK (rrAUC) parent [µM·h]
COc1ccc2c(c1)C(=O)N(C[C@@]1(c3cc4ncccc4o3)NC(=O)N(COC(=O)C(C)(C)C)C1=O)C2 [Compound 1]	13.101
COc1ccc2c(c1)C(=O)N(C[C@@]1(c3cc4cnccc4o3)NC(=O)N(COC(=O)C(C)(C)C)C1=O)C2 [Compound 2]	13.539
CCN1CCN(c2ccc3oc([C@]4(CN5Cc6ccc(OC)c(F)c6C5=O)NC(=O)N(COC(=O)C(C)(C)C)C4=O)cc3n2)CC1 [Compound 3]	19.953
COc1ccc2c(c1F)C(=O)N(C[C@@]1(c3cc4nc(N5CCN(C)CC5)ccc4o3)NC(=O)N(COC(=O)C(C)(C)C)C1=O)C2 [Compound 4]	8.621
COc1ccc2c(c1F)C(=O)N(C[C@@]1(c3cc4nc(N5CCNC(=O)C5)ccc4o3)NC(=O)N(COC(=O)C(C)(C)C)C1=O)C2 [Compound 5]	0.121
COc1ccc2c(c1F)C(=O)N(C[C@@]1(c3cc4nc(N5CCC5=O)ccc4o3)NC(=O)N(COC(=O)C(C)(C)C)C1=O)C2 [Compound 6]	2.283
COc1ccc2c(c1F)C(=O)N(C[C@@]1(c3cc4cc5c(c(F)c4o3)C(=O)NC5)NC(=O)N(COC(=O)C(C)(C)C)C1=O)C2 [Compound 7]	1.898
COc1ccc2c(c1F)C(=O)N(C[C@@]1(c3cc4c5c(ccc4o3)CNC5=O)NC(=O)N(COC(=O)C(C)(C)C)C1=O)C2 [Compound 8]	2.193
COc1ccc2c(c1)C(=O)N(C[C@@]1(c3cc4nc(N5C[C@@H](O)CC5=O)ccc4o3)NC(=O)N(COC(=O)C(C)(C)C)C1=O)C2 [Compound 23]	60.895
COc1ccc2c(c1F)C(=O)N(C[C@@]1(c3cc4cc([C@@]5(C)NC(=O)NC5=O)c(F)cc4o3)NC(=O)N(COC(=O)C(C)(C)C)C1=O)C2 [Compound 30]	0.335
COc1ccc2c(c1)C(=O)N(C[C@@]1(c3cc4ncccc4o3)NC(=O)N(C)C1=O)C2 [Compound 45]	0.947
CCN1C(=O)N[C@@](CN2Cc3ccc(OC)cc3C2=O)(c2cc3ncccc3o2)C1=O [Compound 46]	0.868
COCCOCCOCCN1C(=O)N[C@@](CN2Cc3ccc(OC)cc3C2=O)(c2cc3ncccc3o2)C1=O [Compound 47]	0.019
COc1ccc2c(c1)C(=O)N(C[C@@]1(c3cc4cnccc4o3)NC(=O)N(Cc3cccnc3)C1=O)C2 [Compound 48.1]	0
COCCOCCOCCN1C(=O)N[C@@](CN2Cc3ccc(OC)cc3C2=O)(c2cc3cnccc3o2)C1=O [Compound 49]	0.088
COc1ccc2c(c1)C(=O)N(C[C@@]1(c3cc4cnccc4o3)NC(=O)N(CCN3CCOCC3)C1=O)C2 [Compound 50]	0
COCN1C(=O)N[C@@](CN2Cc3ccc(OC)cc3C2=O)(c2cc3cnccc3o2)C1=O [Compound 52]	1.072
CCOCN1C(=O)N[C@@](CN2Cc3ccc(OC)cc3C2=O)(c2cc3cnccc3o2)C1=O [Compound 53]	5.183

Structure (SMILES)	PK (rrAUC) parent [µM·h]
CCCCCCCCOCN1C(=O)N[C@@](CN2Cc3ccc(OC)cc3C2=O)(c2cc3cnccc3o2)C1=O [Compound 54]	0.571
COCN1C(=O)N[C@@](CN2Cc3ccc(OC)c(F)c3C2=O)(c2cc3cc4c(c(F)c3o2)C(=O)NC4)C1=O [Compound 56]	0
COc1ccc2c(c1F)C(=O)N(C[C@@]1(c3cc4cc5c(c(F)c4o3)C(=O)NC5)NC(=O)N(COCc3ccccc3)C1=O)C2 [Compound 57]	2.244
CCOC(=O)CN1C(=O)N[C@@](CN2Cc3ccc(OC)cc3C2=O)(c2cc3cnccc3o2)C1=O [Compound 58.2]	0
COCN1C(=O)N[C@@](CN2Cc3ccc(OC)cc3C2=O)(c2cc3ncccc3o2)C1=O [Compound 58]	2.125
COc1ccc2c(c1)C(=O)N(C[C@@]1(c3cc4cnccc4o3)NC(=O)N(C(C)OC(=O)OC3COCOC3)C1=O)C2 (stereo partly shown) [Compound 60.1]	0
CCOC(=O)N(C)CCOC(=O)OCN1C(=O)N[C@@](CN2Cc3ccc(OC)cc3C2=O)(c2cc3cnccc3o2)C1=O [Compound 63.5]	0
COc1ccc2c(c1)C(=O)N(C[C@@]1(c3cc4cnccc4o3)NC(=O)N(COC(=O)OC(C)(C)C)C1=O)C2 [Compound 63]	0
COc1ccc2c(c1)C(=O)N(C[C@@]1(c3cc4cnccc4o3)NC(=O)N(COC(=O)c3ccccc3)C1=O)C2 [Compound 66]	1.861
COc1ccc2c(c1)C(=O)N(C[C@@]1(c3cc4cnccc4o3)NC(=O)N(COC(=O)N(C)C)C1=O)C2 [Compound 69]	13.539
COc1ccc2c(c1F)C(=O)N(C[C@@]1(c3cc4cc5c(c(F)c4o3)C(=O)NC5)NC(=O)N(C3OC(=O)c4ccccc43)C1=O)C2 (stereo partly shown) [Compound 75]	0.189
COc1ccc2c(c1)C(=O)N(C[C@@]1(c3cc4cnccc4o3)NC(=O)N(C(=O)OC3COCOC3)C1=O)C2 [Compound 77]	0
COc1ccc2c(c1)C(=O)N(C[C@]1(c3cc4ncccc4o3)C(=O)N(COC(=O)C(C)(C)C)C(=O)N1COC(=O)C(C)(C)C)C2 [Compound 80]	3.092
CCCC(=O)OCN1C(=O)N(C(=O)CCC)[C@@](CN2Cc3ccc(OC)cc3C2=O)(c2cc3cnccc3o2)C1=O [Compound 82]	0.783
COc1ccc2c(c1)C(=O)N(C[C@]1(c3cc4cnccc4o3)C(=O)N(COC(=O)c3ccccc3)C(=O)N1C(=O)c1ccccc1)C2 [Compound 84]	0.126
COc1ccc2c(c1)C(=O)N(C[C@]1(c3cc4cnccc4o3)C(=O)N(COC(=O)C3CCCCC3)C(=O)N1C(=O)C1CCCCC1)C2 [Compound 87]	0
COc1ccc2c(c1)C(=O)N(C[C@]1(c3cc4cnccc4o3)C(=O)N(C(C)OC(=O)OC3COCOC3)C(=O)N1C(=O)OC1COCOC1)C2 (stereo partly shown) [Compound 88]	0
